Columns and labels:
[1] = target: human acetylcholinesterase (AChE, EC 3.1.1.7) (Homo sapiens, UniProt P22303); assay: Inhibition of freshly prepared human erythrocyte AChE
[2] = target: human butyrylcholinesterase (BChE, EC 3.1.1.8) (Homo sapiens, UniProt P06276); assay: Inhibition of freshly prepared human plasma BChE; assay type: biochemical; conditions: from 60 to 18,000 nM
cholinesterase = conditions: cited from earlier work
[3] = Observation for acute cholinergically-mediated adverse effects in rat; conditions: anesthetized rat, 10 mg/kg i.p.

Chain of human acetylcholinesterase (AChE, EC 3.1.1.7) (P22303 32-617 isoform P22303-2 limits assumed): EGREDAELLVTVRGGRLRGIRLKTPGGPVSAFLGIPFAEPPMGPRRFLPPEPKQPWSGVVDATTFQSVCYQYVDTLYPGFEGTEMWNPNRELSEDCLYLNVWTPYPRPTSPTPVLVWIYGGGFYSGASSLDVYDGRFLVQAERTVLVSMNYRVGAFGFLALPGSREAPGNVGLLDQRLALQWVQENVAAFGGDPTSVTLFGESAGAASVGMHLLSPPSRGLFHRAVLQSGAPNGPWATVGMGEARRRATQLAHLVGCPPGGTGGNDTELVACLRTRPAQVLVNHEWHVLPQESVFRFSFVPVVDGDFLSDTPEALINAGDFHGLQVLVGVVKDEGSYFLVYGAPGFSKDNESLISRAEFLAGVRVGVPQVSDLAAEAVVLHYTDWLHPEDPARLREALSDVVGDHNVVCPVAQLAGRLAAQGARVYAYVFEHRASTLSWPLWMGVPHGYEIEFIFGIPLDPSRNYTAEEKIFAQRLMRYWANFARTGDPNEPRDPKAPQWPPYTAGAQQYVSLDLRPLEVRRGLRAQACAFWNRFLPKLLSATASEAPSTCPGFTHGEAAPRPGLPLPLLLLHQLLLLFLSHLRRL
Chain of human butyrylcholinesterase (BChE, EC 3.1.1.8) (P06276 29-602): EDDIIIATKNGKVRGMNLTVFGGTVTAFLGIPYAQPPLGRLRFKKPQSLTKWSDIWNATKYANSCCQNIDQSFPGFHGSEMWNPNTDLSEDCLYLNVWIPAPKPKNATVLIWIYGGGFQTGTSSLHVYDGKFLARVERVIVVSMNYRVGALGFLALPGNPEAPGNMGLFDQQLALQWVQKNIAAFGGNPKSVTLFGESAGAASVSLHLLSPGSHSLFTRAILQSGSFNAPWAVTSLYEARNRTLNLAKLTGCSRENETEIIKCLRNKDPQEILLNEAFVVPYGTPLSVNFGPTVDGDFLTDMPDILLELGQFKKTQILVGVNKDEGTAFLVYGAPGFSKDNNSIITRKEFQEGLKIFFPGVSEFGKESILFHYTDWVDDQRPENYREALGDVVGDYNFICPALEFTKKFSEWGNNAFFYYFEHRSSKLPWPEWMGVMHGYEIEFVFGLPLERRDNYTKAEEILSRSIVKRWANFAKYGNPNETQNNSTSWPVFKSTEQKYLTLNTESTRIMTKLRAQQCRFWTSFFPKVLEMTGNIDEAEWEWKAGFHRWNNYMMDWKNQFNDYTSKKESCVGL

C[n+]1cccc(OC(=O)Nc2ccccc2)c1.[Br-] [Compound 8, N-Phenylcarbamate of 3-hydroxy-1-methylpyridinium bromide]
AChE inhibitory activity (in words) ([1]; human AChE, versus pyridostigmine (4)): entire loss of AChE activity

COS(=O)(=O)[O-].C[N+](C)(C)c1cccc(OC(=O)Nc2ccccc2)c1 [Compound 6, N-Phenylcarbamate of 3-phenol-1-trimethylammonium methylsulfate]
fold decline of BChE IC50 value relative to neostigmine (3) [2]: 300 fold

O=C(Nc1ccccc1)Oc1cccnc1 [Compound 7, N-Phenylcarbamate of 3-hydroxypyridine]
Selectivity A/B or B/A ([1]; given in words only, no ratio): None

CNC(=O)Oc1ccc2c(c1)[C@]1(C)CCN(C)[C@@H]1N2C [Compound 9, (−)-Physostigmine]
human pharmacodynamic half-life (T1/2) (cholinesterase): 30 min

CC(C)c1ccc(NC(=O)Oc2ccc3c(c2)[C@]2(C)CC[N+](C)(C)C2N3C)cc1.[Br-] (stereo partly drawn) [Compound 16, N(1)-Methylammonium bromide of (−)-cymserine]
central (tremor) or peripheral (lacrimation and salivation) cholinergically-mediated adverse effects [3]: No central (tremor) or peripheral (lacrimation and salivation) cholinergically-mediated adverse effects were evident
